{"source": "patent US8097637B2", "about": "“Benzoyl-piperidine derivatives as dual modulators of the 5-HT2A and D3 receptors” (Hoffmann-La Roche Inc., priority 2007, dated 2012)", "key": {"[1]": {"target": "T1, human D2 dopamine receptor (Homo sapiens, UniProt P14416)", "T1 construct": "expressed in transfected cells; host or cells: HEK-293 EBNA cells, transient transfection; membrane preparation", "T1 sequence (P14416 whole entry)": "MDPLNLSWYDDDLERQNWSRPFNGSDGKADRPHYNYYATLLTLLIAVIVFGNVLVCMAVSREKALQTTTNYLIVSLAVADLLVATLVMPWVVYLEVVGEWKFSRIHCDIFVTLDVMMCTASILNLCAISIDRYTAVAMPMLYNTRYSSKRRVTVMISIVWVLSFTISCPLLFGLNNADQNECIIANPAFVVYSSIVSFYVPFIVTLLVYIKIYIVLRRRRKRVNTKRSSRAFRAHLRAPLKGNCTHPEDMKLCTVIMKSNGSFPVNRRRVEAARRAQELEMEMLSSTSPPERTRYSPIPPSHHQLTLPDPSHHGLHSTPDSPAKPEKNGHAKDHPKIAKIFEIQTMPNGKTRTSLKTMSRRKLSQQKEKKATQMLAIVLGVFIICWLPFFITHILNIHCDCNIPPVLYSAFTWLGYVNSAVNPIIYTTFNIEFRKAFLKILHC", "assay": "Radioligand binding ([3H]-spiperone) to cloned human D2 receptor, HEK-293 EBNA cell membranes", "conditions": "0.7 nM [3H]-spiperone, 1 h at RT, Cheng-Prusoff", "description": "(§1) Membrane Preparation for Human D2, Human D3 and Human 5-HT2A Receptors\n(§2) HEK-293 EBNA cells were transiently transfected with expression plasmids encoding for the human D2 or D3 dopamine- or for the human 5-HT2A serotonin receptor, respectively. The cells were harvested 48 h post-transfection, washed three times with cold PBS and stored at −80° C. prior to use. The pellet was suspended in cold 50 mM Tris-HCl buffer containing 10 mM EDTA (pH 7.4) and homogenized with a Polytron (Kinematica AG, Basel, Switzerland) for 20-30 sec at 12.000 rpm. After centrifugation at 48.000×g for 30 min at 4° C., the pellet was resuspended in cold 10 mM Tris-HCl buffer containing 0.1 mM EDTA (pH 7.4), homogenized, and centrifuged as above. This pellet was further resuspended in a smaller volume of ice cold 10 mM Tris-HCl buffer containing 0.1 mM EDTA (pH 7.4) and homogenized with a Polytron for 20-30 sec at 12.000 rpm. The protein content of this homogenate was determined with the Bio-Rad (Bradford) Protein Assay (Biorad Laboratories GmbH, München, Germany) according to the instructions of the manufacturer using gamma globulin as the standard. This homogenate was stored at −80° C. in aliquots and thawed immediately prior to use.\n(§3) Radioligand Binding Assay Conditions\n(§4) Aliquots of membrane preparations were thawed at RT, resuspended in assay buffer (D2, D3: 50 mM Tris-HCl, 120 mM NaCl, 5 mM MgCl2, 1 mM EDTA, 5 mM KCl, 1.5 mM CaCl2, pH=7.4; 5-HT2A: 50 mM Tris-HCl, 10 mM MgCl2, 1 mM EGTA, pH=7.4), homogenized with a Polytron for 20-30 sec at 12.000 rpm and adjusted to a final concentration of approximately 7.5 μg protein/well (D2, D3) and 15 μg protein/well (5-HT2A), respectively.\n(§5) The binding affinity (Ki) of the compounds was determined using radioligand binding. Membranes were incubated in a total volume of 200 μl with a fixed concentration of radioligand (final concentration approximately 0.7 nM [^3H]-spiperone for D2, 0.5 nM [^3H]-spiperone for D3, and 1.1 nM [^3H]-ketanserin for 5-HT2A) and ten concentrations of test compound in ranging between 10 μM-0.1 nM for 1 h at RT. At the end of the incubation, the reaction mixtures were filtered on to unifilter 96-well white microplates with bonded GF/C filters (Packard BioScience, Zürich, Switzerland; preincubated for 1 h in 0.1% polyethylenimine (PEI) in assay buffer) with a Filtermate 196 harvester (Packard BioScience) and washed 3 times with cold assay buffer. The nonspecific binding was determined with equally composed reaction mixtures in the presence of 10 μM unlabeled spiperone. Per well 45 μl of Microscint 40 (Perkin Elmer, Schwerzenbach, Switzerland) was added, plates for sealed, shaken for 20 min and counted for 3 min on a Topcount Microplate Scintillation Counter (Canberra Packard SA, Zürich, Switzerland) with quenching correction.\n(§6) The CPM value for each duplicate of a concentration of competing compound was averaged (yl), then the % specific binding was calculated according to the equation (((yl-non-specific)/(total binding-non-specific))×100). Graphs were plotted with the % specific binding using XLfit, a curve fitting program that iteratively plots the data using Levenburg Marquardt algorithm. The single site competition analysis equation used was y=A+((B−A)/(1+((x/C)^D))), where y is the % specific binding, A is the minimum y, B is the maximum y, C is the IC50, x is the log10 of the concentration of the competing compound and D is the slope of the curve (the Hill Coefficient). […] The affinity constant (Ki) was calculated using the Cheng-Prusoff equation Ki=(IC50/1+([L]/Kd), where [L] is the concentration of radioligand and Kd is the dissociation constant of the radioligand at the receptor as determined by the saturation isotherm."}, "[2]": {"target": "T2, human 5-HT2A serotonin receptor (Homo sapiens, UniProt P28223)", "T2 construct": "expressed in transfected cells; host or cells: HEK-293 EBNA cells, transient transfection; membrane preparation", "T2 sequence (P28223 whole entry)": "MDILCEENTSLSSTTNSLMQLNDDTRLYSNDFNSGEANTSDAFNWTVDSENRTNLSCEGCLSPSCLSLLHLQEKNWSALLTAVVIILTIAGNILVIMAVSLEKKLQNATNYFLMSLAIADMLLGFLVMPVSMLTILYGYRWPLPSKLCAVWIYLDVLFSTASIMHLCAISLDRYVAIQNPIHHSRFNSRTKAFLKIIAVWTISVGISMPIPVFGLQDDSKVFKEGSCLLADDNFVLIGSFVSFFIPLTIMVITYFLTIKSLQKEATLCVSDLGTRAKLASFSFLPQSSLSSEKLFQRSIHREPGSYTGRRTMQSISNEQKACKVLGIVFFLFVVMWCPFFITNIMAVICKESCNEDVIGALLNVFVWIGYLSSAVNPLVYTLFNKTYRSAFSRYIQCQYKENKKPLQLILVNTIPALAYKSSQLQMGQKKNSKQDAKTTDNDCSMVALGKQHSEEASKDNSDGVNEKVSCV", "assay": "Radioligand binding ([3H]-ketanserin) to cloned human 5-HT2A receptor, HEK-293 EBNA cell membranes", "conditions": "1.1 nM [3H]-ketanserin, 1 h at RT, Cheng-Prusoff", "description": "as §1\nas §2, with “The” for “HEK-293 EBNA cells were transiently transfected with expression plasmids encoding for the human D2 or D3 dopamine- or for the human 5-HT2A serotonin receptor, respectively. The”\nas §3, §4\nThe binding affinity (Ki) of the compounds was determined using radioligand binding. […] The nonspecific binding was determined with equally composed reaction mixtures in the presence of 10 μM unlabeled spiperone. Per well 45 μl of Microscint 40 (Perkin Elmer, Schwerzenbach, Switzerland) was added, plates for sealed, shaken for 20 min and counted for 3 min on a Topcount Microplate Scintillation Counter (Canberra Packard SA, Zürich, Switzerland) with quenching correction.\nas §6"}, "[3]": {"target": "T3, human D3 dopamine receptor (Homo sapiens, UniProt P35462)", "T3 construct": "expressed in transfected cells; host or cells: HEK-293 EBNA cells, transient transfection; membrane preparation", "T3 sequence (P35462 whole entry)": "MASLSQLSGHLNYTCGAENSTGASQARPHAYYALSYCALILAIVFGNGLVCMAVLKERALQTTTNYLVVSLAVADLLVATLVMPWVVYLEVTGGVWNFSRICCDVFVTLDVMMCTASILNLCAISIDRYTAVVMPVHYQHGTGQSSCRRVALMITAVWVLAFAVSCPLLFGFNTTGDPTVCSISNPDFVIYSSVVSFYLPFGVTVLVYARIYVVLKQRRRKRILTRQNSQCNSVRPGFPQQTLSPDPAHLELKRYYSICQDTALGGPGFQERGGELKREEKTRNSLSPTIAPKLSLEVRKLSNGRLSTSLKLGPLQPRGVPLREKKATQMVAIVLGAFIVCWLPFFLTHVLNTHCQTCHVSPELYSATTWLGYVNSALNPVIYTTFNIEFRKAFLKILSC", "assay": "Radioligand binding ([3H]-spiperone) to cloned human D3 receptor, HEK-293 EBNA cell membranes", "conditions": "0.5 nM [3H]-spiperone, 1 h at RT, Cheng-Prusoff", "description": "The ability of the compounds to bind to the 5-HT2A, D3 and D2 receptors was determined using radioligand binding to cloned receptors selectively expressed in HEK-293 EBNA cells.\nas §1, §2, §3, §4, §5, §6"}}}
{"smiles": "O=C(CC1CC(CO)C1)N[C@H]1CC[C@H](CCN2CCC(C(=O)c3ccc(F)cc3)CC2)CC1", "note": "(mixture of isomers) [Example 19, N-trans (4-{2-[4-(4-Fluoro-benzoyl)-piperidin-1-yl]-ethyl}-cyclohexyl)-2-cis/trans (3-hydroxymethyl-cyclobutyl)-acetamide]", "values": [{"measurement": "Ki", "setting": "[1]", "value": 1000, "unit": "nM"}, {"measurement": "Ki", "setting": "[2]", "value": 11, "unit": "nM"}, {"measurement": "Ki", "setting": "[3]", "value": 28, "unit": "nM"}]}
